The values below come from patent publication US5414144A, “Propylene glycol cyclohexyl ether derivatives, method of producing same and uses thereof” (Asahi Kasei Kogyo Kabushiki Kaisha, priority 1993, dated 1995).

Each structure is given as a SMILES string. Like-named read-outs stand apart in the source and are kept apart here.

A short description of one data set: Flash point (JIS-K2265). The data set is classed as physicochemical.
The conditions of data set [1]: for Solubility (In water) / Solubility (Water in): 20° C.; for Solubility (In water): solubility of the sample compound in water; for Solubility (In water) / solubility in water: 30 min; for Solubility (Water in): solubility of water in the sample compound; for solubility in water: Table 2. Here is the method: (3) Solubility ("water in" and "in water")
10 g of a sample compound (liquid) was mixed with 10 g of water and then allowed to stand still for 30 minutes, so that the mixture was permitted to separate into a sample compound layer and an aqueous layer. Then, the water content of the sample compound layer was measured using a Karl Fischer moisture meter manufactured by Kyoto Electronics Co., Ltd., Japan, and the obtained value was taken as a solubility of water in the sample compound. The content of the sample compound in the aqueous layer was measured using GC and the obtained value was taken as a solubility of the sample compound in water.

The next data set can be described thus: Viscosity. The data set is classed as physicochemical. Conditions: 25° C. Here is the method:
The viscosity was measured at 25° C. using a digital viscometer (Model DVL-B, manufactured by Toki Sangyo Co., Ltd., Japan).

Data set [2] is classed as physicochemical. On the procedure:
The boiling point was determined from the temperature and pressure of the vapor at the top of the distillation column.

Another data set in a line: Relative drying rate. The data set is classed as physicochemical. Conditions: 50° C., 20 minutes; relative to Elease M-9000. Here is the method: (10) Relative Drying Rate
(§1) 10 g of a sample compound and 10 g of a glycol ether-type detergent (Elease M-9000, manufactured by Asahi Kasei Kogyo K.K., Japan) were individually placed in an oven and heated at 50° C. for 20 minutes. Then, a measurement was done with respect to the decrease in the weight of the sample compound as well as the decrease in the weight of Elease M-9000. The relative drying rate was calculated according to the following formula: [formula] (11) Oil Solubility Characteristics

Data set [3] can be described thus: Overall comparison of properties in Table 2. The note with it: Table 2 comparison in words. On the procedure: Properties of the product were measured and results of the measurements are shown in Table 2, together with those of Example 1 for easy comparison.
Data set [4] is described as follows: Oil solubility characteristics. The note with it: 100 g sample compound. Format: physicochemical. Here is the method:
as §1
Each of the oils mentioned below was individually added to 100 g of a sample compound while stirring until a saturation of the sample compound with the oil was reached. The solubility (%) was expressed in terms of the percent expression of the weight of the oil dissolved in 100 g of the sample compound, with the dissolution of 100 g of the oil being taken as 100%. For example, when the amount of the oil dissolved was n g, the solubility was expressed as n %. The above-mentioned oils were: a mineral oil (Smoil PS-260, manufactured by Matsumura Sekiyu Kenkyusho, Japan), a drawing oil (Daphne Masterdraw 533WD, manufactured by Idemitsu Kosan Co., Ltd., Japan), a press oil (Uni Press DP-120, manufactured by Nippon Sekiyu Co., Ltd., Japan) and a rosin oil (sold by Kishida Kagaku Co., Ltd., Japan).

The conditions of data set [5]: background, result in words; cited from earlier work.
Another data set in a line: Separability from water. Format: physicochemical. The note with it: result in words. On the procedure:
(6) Separability from Water
An equivolume mixture of a sample compound and water was vigorously shaken and then allowed to stand. After a period of 5 minutes, the degree of separation of the sample compound from water was judged by the naked eye.

Take `COCC(C)OC1CCCCC1` (stereo not drawn) [Example 1, propylene glycol methyl cyclohexyl ether]: the Flash point in the data set “Flash point (JIS-K2265)” is 73 °C. Besides, in data set [1], the “Solubility (In water)” value came out at 0.3%, the “Solubility (Water in)” value was found to be 1.4% and the “solubility in water” value was 0.3%. For the same compound, the viscosity – broadly, the resistance of a fluid to flow – in the data set “Viscosity” stood at 2.4 cP. In data set [2], this compound registered a Boiling point of 175 °C. This compound had a Relative drying rate in “Relative drying rate” of 77%. Moreover, the “results vs Comparative Example 9 (relative drying rate, viscosity, solubility in water, oil solubility)” value in data set [3] is reported as “very superior”. Moreover, in data set [4], the “Oil solubility characteristics (Drawing oil)” value was “A (50% or more)”, the “Oil solubility characteristics (Mineral oil)” value is listed as “A (50% or more)”, the “Oil solubility characteristics (Press oil)” value is recorded as “A (50% or more)” and the “Oil solubility characteristics (Rosin oil)” value is listed as “A (50% or more)”.
For the compound `CCCCOCC(C)O` (stereo not drawn) [compound 3, Propylene glycol mono-n-butyl ether], the Flash point in “Flash point (JIS-K2265)” was determined as 59 °C. Also, in data set [1], the “Solubility (In water)” value was found to be 5.6% and the “Solubility (Water in)” value was 14.9%. This compound also returned a Boiling point in data set [2] of 170 °C.
In “Flash point (JIS-K2265)”, `CCOCCOCCOCC` [Comparative Example 8, Diethylene glycol diethyl ether] displayed a Flash point of 72 °C. For the same compound, in data set [5], the solubility in water entry is on record as “extremely high solubility in water” and the toxicity result is reported as “high toxicity”. For the same compound, in “Separability from water”, the separability from water result is listed as “poor”.
In the case of `COCC(C)OC1CCCCC1O` (stereo not drawn) [Example 3, 2-hydroxycyclohexyloxymethoxypropane], in data set [1], the “Solubility (In water)” value was 2.7% and the “Solubility (Water in)” value is 11.7%. In addition, the Boiling point in data set [2] (Measured at 5 mm/Hg) was 93 °C.
Take `CCCCCCOCCOCCO` [diethylene glycol monohexyl ether]: the viscosity result in data set [5] is “disadvantageously high viscosity”.
`CC(O)COC1CCCCC1` (stereo not drawn) [Comparative Example 9, 1-cyclohexyloxy-2-propanol]: the Flash point in the data set “Flash point (JIS-K2265)” worked out at 88 °C. In [5], the “dissolving power for oils” value is on record as “poor dissolving power for oils”, the drying rate result is “low drying rate”, the solubility in water result is “high solubility in water” and the viscosity result was “high viscosity”. Moreover, in data set [1], the “solubility in water” value was 1%. This compound also had a viscosity in “Viscosity” of 14 cP. The same compound had a Boiling point in data set [2] of 208 °C. This compound returned a Relative drying rate in “Relative drying rate” of 36%. Moreover, in data set [4], the “Oil solubility characteristics (Drawing oil)” value was “E (Less than 2%)”, the “Oil solubility characteristics (Mineral oil)” value is “A (50% or more)”, the “Oil solubility characteristics (Press oil)” value is listed as “A (50% or more)” and the “Oil solubility characteristics (Rosin oil)” value is listed as “C (10% to less than 20%)”.
`CCCCOCC(C)OCCCC` (stereo not drawn) [compound 5, Propylene glycol di-n-butyl ether] came in with a Flash point in “Flash point (JIS-K2265)” of 69 °C. In addition, in data set [1], the “Solubility (In water)” value amounted to 2.0% and the “Solubility (Water in)” value came to 0.6%. Moreover, the Boiling point in data set [2] is 190 °C.
For the compound `CCCCCCOCCO` [Comparative Example 1, Ethylene glycol mono-n-hexyl ether], in the data set “Flash point (JIS-K2265)”, the Flash point came out at 82 °C. In data set [1], the “Solubility (In water)” value is 1.0% and the “Solubility (Water in)” value came to 18.8%. Also, the Boiling point in data set [2] came to 208 °C.
Turning to `COCC(C)OC(C)=O` (stereo not drawn) [compound 4, Propylene glycol methyl ether acetate], in the data set “Flash point (JIS-K2265)”, the Flash point came out at 47 °C. Further, in data set [1], the “Solubility (In water)” value worked out at 3.0% and the “Solubility (Water in)” value is given as 19.0%. Also, the Boiling point in data set [2] is 146 °C.
`CCOCC(C)OC1CCCCC1` (stereo not drawn) [Example 2, propylene glycol ethyl cyclohexyl ether] yielded a Flash point in the data set “Flash point (JIS-K2265)” of 80 °C. Moreover, in data set [1], the “Solubility (In water)” value came out at 0.2% and the “Solubility (Water in)” value is listed as 0.7%. The Boiling point in [2] was determined as 192 °C.
Regarding `C=C(C)C1CC=C(C)CC1` (stereo not drawn) [Comparative Example 6, Limonene], the results for the Flash point in the data set “Flash point (JIS-K2265)” and in “Flash point (JIS-K2265)” (result in words) were 45 °C and “low”, respectively. The separability from water entry in “Separability from water” was “good”.
Turning to `COCCOCCOC` [diethylene glycol dimethyl ether], in [5], the solubility in water entry is reported as “extremely high solubility in water” and the toxicity entry is “high toxicity”.
`CCCCCCOCCOCCO` [Comparative Example 2, Diethylene glycol mono-n-hexyl ether]: the Flash point in the data set “Flash point (JIS-K2265)” amounted to 140 °C. The separability from water result in “Separability from water” is reported as “good”.
As to `CCCCOCCOCCO` [Comparative Example 7, Diethylene glycol monobutyl ether], in the data set “Flash point (JIS-K2265)”, the Flash point was found to be 116 °C. Moreover, the solubility in water result in data set [5] is “disadvantageously high”. The separability from water entry in the data set “Separability from water” is on record as “poor”.
